Experimental data taken from patent US20250161233A1, “VINYLATION COUPLED DERIVATIVE OF BETA-ELEMENE, AND PREPARATION METHOD AND USE THEREOF IN PREPARATION OF ANTITUMOR DRUG” (HANGZHOU NORMAL UNIVERSITY, priority 2022, published 2025).

Legend:
[1] = tested on: Human colon cancer cells (HCT116); assay: Tumor cell proliferation inhibition (CCK-8), HCT116; format: cell-based; conditions: for inhibition at 100 µM: HCT-116, 100 μM of the compound, read-out: Anti-proliferative activity at 100 μM by concentration (%) HCT116 (tumor cell inhibition rate)
Procedure: (§1) Human colon cancer cells (HCT116), human lung cancer cells (A549).
(§2) 1) The test cells in a logarithmic growth phase were trypsinized and counted, inoculated in a 96-well culture plate at a concentration of 5×10^4/mL, 100 μL per well (5×10^3 cells per well), and incubated at 37° C. in a 5% CO2 incubator for 24 h.
(§3) 2) A drug to be tested was diluted to different concentrations with McCoy'S 5A or RPMI 1640 complete medium. The experimental group was replaced with a culture solution containing different concentrations of the tested samples, and the control group was replaced with a culture solution containing the same volume of solvent (DMSO). Three parallel wells were set up in each group, and the culture was continued for 48 h in a 5% CO2 incubator at 37° C.
(§4) HCT116 cells used the McCoy'S 5A complete medium, and A549 cells used the RPMI 1640 complete medium.
(§5) 3) 10 μL of a CCK-8 solution was added to each well, incubated at 37° C. for 1 h to 4 h, and an absorbance (OD value) of each well at 490 nm was measured with a microplate reader.
(§6) 4) A survival rate and an inhibition rate were calculated with the following formulas:
(§7) Cell survival rate=[(As−Ab)/(Ac−Ab)]×100%
(§8) Inhibition rate=[(Ac−As)/(Ac−Ab)]×100%
(§9) An S-type dose-survival curve was plotted using GraphPad Prism 7.0 software and a nonlinear regression model, and IC50 values were calculated. • As: absorbance of the experimental well (medium containing cells, CCK-8, and the drug to be tested) • Ac: absorbance of control wells (medium containing cells, CCK-8, and solvent (DMSO)) • Ab: absorbance of blank wells (medium without cells and drug to be tested, CCK-8)

[2] = tested on: human lung cancer cells (A549); assay: Tumor cell proliferation inhibition (CCK-8), A549; format: cell-based; conditions: 48 h; for inhibition at 100 µM: read-out: Anti-proliferative activity at 100 μM by concentration (%) A549 (tumor cell inhibition rate)
Procedure: as §1, §2, §3, §4, §5, §6, §7, §8, §9

[3] = Homo sapiens, 100 μM of the compound

| SMILES | inhibition at 100 µM ([1]; Homo sapiens, 48 h) [%] | IC50 ([1]; Homo sapiens, HCT-116, 48 h) [µM] | inhibition at 100 µM [2, 3] [%] | IC50 ([2]; Homo sapiens) [µM] | Anti-proliferative activity at 100 μM by concentration (%) HCT116 (tumor cell inhibition rate) ([1]; 100 μM of the compound, 48 h) [%] | IC50 ([1]; 48 h) [µM] | Anti-proliferative activity at 100 μM by concentration (%) A549 (tumor cell inhibition rate) ([2]; 100 μM of the compound) [%] | IC50 [2] [µM] |
| --- | --- | --- | --- | --- | --- | --- | --- | --- |
| C=C[C@]1(C)CC[C@@H](C(=C)C/C=C/c2ccc(-n3cncn3)cc2)C[C@H]1C(=C)C [Compound 4] | 99.8 ± 0.08 | 50.9 ± 0.8 | 97.5 ± 0.4 | 57.2 ± 2.95 | – | – | – | – |
| C=C[C@]1(C)CC[C@@H](C(=C)C/C=C/c2ccc(C(=O)OCC[C@@H](C)CCC=C(C)C)cc2)C[C@H]1C(=C)C [Compound 6] | 21.7 ± 0.8 | – | 14.4 ± 0.5 | – | – | – | – | – |
| C=C[C@]1(C)CC[C@@H](C(=C)C/C=C/c2ccc(C(=O)OCCOc3ccc(/C(=C(/CCCl)c4ccccc4)c4ccccc4)cc3)cc2)C[C@H]1C(=C)C [Compound 10] | 13.5 ± 0.3 | – | 40.4 ± 0.6 | – | – | – | – | – |
| C=C[C@]1(C)CC[C@@H](C(=C)C)C[C@H]1C(=C)C [β-elemene, reference compound] | – | – | – | – | 0.6 ± 0.5 | 782 ± 51 | 10.6 ± 0.5 | 227 ± 1.2 |
